One may read the IC50 as the concentration needed to halve the response being measured.

Experimental findings from patent US20230256111A1, “C[…] ADC OR AN AOC COMPRISING A VHH, AND A SAPONIN OR A LIGAND-SAPONIN CONJUGATE” (SAPREME TECHNOLOGIES B.V., priority 2020, published 2023) are described below.

Experiment in all cases: Cell viability (MTS) assay, targeted toxin mediated cell killing
Type in all cases: cell-based, human
Common to all, as to conditions: read-out: IC50, 1500 nM SO1861, toxin or toxin conjugate titrated + 1500 nM unconjugated SO1861

The subject of assay [1] is CaSki cells.
Description: (§1) Cells were seeded in a 96 well plate at 5.000-10.000 c/w in 100 μL/well and incubated overnight at 37° C. […] The media was removed from the cell culture plate and replaced by 180 μL culture media, followed by the addition of 20 μL treatment-mix/well. […] In the case that endosomal acidification inhibitors (chloroquine (Sigma Aldrich) or bafilomycin A1 (Enzo Life Sciences)) were used, the cell culture media in step 1 of treatment was replaced by 180 μL media containing 1 pM chloroquine or 0.2 pM bafilomycin A1. The plate was incubated for 1 hour at 37° C., before the 10× treatment-mix samples were added.
(§2) After treatment the cells were incubated for 72 hr at 37° C. before the cell viability was determined by a MTS-assay, performed according to the manufacturer's instruction (CellTiter 96® AQueous One Solution Cell Proliferation Assay, Promega). Briefly, the MTS solution was diluted 20× in DMEM without phenol red (PAN-Biotech GmbH) supplemented with 10% FBS (PAN-Biotech GmbH). […] Subsequently, the optical density at 492 nm was measured on a Thermo Scientific Multiskan FC plate reader (Thermo Scientific). For quantification the background signal of ‘medium only’ wells was subtracted from all other wells, before the ratio of untreated/treated cells was calculated, by dividing the background corrected signal of untreated wells over the background corrected signal of the treated wells.
The test system of assay [2] is HeLa cells.
Description: as §1, §2
Assay [3] concerns JIMT-1 cells.
Description: as §1, §2

In the case of Saporin, the IC50 was 0.015 nM in assay [1], 0.03 nM in assay [2] and 0.03 nM in assay [3].
